Results: patent US20110098295A1, “METHODS OF TREATING ANXIETY, ITCHING AND PSYCHIATRIC DISORDERS” (priority 2009, published 2011)

How the values were obtained:
[1] = test system: adenylyl cyclase subtype 8; assay: Biochemical screening test for AC8 inhibitors (cAMP assay in HEK293 cells expressing ACs); assay type: cell-based; settings: 100 μM
Description: (§1) For AC8 expression vector pcDNA3-AC1 transfection, HEK293 cells were plated onto 60-mm-diameter dishes at a density of 1×10^6 per plate, grown overnight and transfected with pcDNA3-AC1 (0.8 μg DNA per plate) by Lipofectamine 2000 (Invitrogen). Stable transfected clones were selected in culture media containing 0.8 mg/ml G418 (Invitrogen, CA) and maintained in this media. For transient expression of other AC isoforms in HEK293 cells, HEK293 cells were plated in 96 well tissue culture dishes and transfected with plasmids for AC5, respectively, experiments were carried out at 48 h after transfection.
(§2) The HEK293 cells expressing ACs were harvested and lysed in 0.1 M HCl after different treatments. Direct cAMP measurements were performed using the direct cAMP enzyme immunoassay kit (Assay Designs, MI) and optical density values were measured at 405 nm by the microplate reader. Phosphodiesterase was inhibited by the addition of 1 mM 3-isobutyl-1 methylxanthine (Sigma, Mo.) to cultures.
The HEK293 cells were subcultured into 96-well plates in the absence of antibiotics and grown overnight and transfected with the pGL3-CRE-firefly luciferase and pGL3-CMV-Renilla luciferase constructs (0.25 μg DNA per well) by Lipofectamine 2000 reagent. The transfected cells were incubated overnight, and media were changed to DMEM containing 10% fetal bovine serum. After 48 h, the cells were treated with 10 μM forskolin, 10 μM A23187 and 2 mM CaCl2, or a combination of 10 μM forskolin, 10 μM A23187 and 2 mM CaCl2, in the absence or presence of each chemical tested at the concentration of 100 μM. At the end of 6 hours, incubation cells were harvested and luciferase activity was assayed by Dual-Luciferase Reporter Assay System (Promega). Relative light units were measured using a SIRIUS luminometer.
A set of biochemical screening tests were carried out to search for potential selective AC8 inhibitors. cAMP assay, gene-activation (pCREB) assay in AC8 expressed cell lines, as well as integrative physiological experiments were employed to screen for potential AC8 inhibitors. The effect of Compound A and B on AC8 was determined.

[2] = biological target: T1, adenylyl cyclase subtype 5 (Homo sapiens, UniProt O95622); assay: Biochemical screening test, AC5 transiently expressed in HEK293 cells; assay type: cell-based; settings: read-out: Percent Inhibition AC5
T1 construct: expressed in transfected cells; host or cells: HEK293 (transient, 48 h)
T1 sequence (O95622 whole entry): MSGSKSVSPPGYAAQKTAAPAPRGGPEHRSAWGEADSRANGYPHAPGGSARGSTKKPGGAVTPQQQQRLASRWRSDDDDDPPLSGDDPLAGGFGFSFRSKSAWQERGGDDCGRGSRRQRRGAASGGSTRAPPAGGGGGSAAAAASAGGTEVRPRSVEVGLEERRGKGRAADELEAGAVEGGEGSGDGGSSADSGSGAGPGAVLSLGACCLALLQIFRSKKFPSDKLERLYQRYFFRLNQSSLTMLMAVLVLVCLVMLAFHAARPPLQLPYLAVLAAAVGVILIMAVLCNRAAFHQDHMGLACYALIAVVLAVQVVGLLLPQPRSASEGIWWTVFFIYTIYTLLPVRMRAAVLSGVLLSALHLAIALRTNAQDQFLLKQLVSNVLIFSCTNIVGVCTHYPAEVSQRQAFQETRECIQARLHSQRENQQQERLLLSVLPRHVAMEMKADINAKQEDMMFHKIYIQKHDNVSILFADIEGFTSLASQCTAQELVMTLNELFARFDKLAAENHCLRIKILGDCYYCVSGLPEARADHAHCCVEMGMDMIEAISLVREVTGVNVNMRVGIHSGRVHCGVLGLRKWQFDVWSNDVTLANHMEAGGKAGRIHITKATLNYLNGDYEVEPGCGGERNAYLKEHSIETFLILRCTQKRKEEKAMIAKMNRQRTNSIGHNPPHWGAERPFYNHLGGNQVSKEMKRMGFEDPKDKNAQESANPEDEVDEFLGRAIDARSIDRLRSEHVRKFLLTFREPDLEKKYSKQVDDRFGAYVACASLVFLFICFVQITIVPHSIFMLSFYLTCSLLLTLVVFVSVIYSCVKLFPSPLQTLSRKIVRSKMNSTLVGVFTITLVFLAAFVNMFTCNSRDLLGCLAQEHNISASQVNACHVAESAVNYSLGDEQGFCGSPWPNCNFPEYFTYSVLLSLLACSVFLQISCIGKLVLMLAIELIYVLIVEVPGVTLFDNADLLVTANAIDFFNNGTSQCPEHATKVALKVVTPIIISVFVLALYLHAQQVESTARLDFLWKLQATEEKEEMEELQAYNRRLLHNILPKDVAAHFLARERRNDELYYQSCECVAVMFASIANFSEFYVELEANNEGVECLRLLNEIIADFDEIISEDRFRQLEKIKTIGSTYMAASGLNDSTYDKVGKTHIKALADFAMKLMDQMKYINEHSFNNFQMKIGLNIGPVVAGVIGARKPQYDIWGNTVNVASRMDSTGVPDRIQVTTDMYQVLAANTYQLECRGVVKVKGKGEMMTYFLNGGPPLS
Description: as §1, §2
The HEK293 cells were subcultured into 96-well plates in the absence of antibiotics and grown overnight and transfected with the pGL3-CRE-firefly luciferase and pGL3-CMV-Renilla luciferase constructs (0.25 μg DNA per well) by Lipofectamine 2000 reagent. […] Relative light units were measured using a SIRIUS luminometer.

wild-type mice = assay: Open field test, animal model of behavioral anxiety; assay type: in vivo; parameters: anti-anxiety effects in the open field test: dose or concentration left out as unconfirmed
From the text: Animals were placed in the open field immediately after an IP injection. […] B) Mice injected with AC8 inhibitor (filled circles) traveled more than control mice injected with saline (open circles). *P<0.05
A round, green, plastic tub with diameter 43.5 cm was used to create an open arena for the mouse to travel. The floor was made of clear Plexiglas. Each trial consisted of exposing the mouse to a bright light (685 lux) in the arena for the first minute, followed immediately by exposing the mouse only to dim light (1 lux) for another minute. The mouse's movements were captured using video camera tracking software (Ethovision, Noldus Va.) and the distance from the border of the arena, the distance from the centre of the arena, and the total distance traveled were measured. The percent difference in these factors between bright and dim light periods were also calculated. After each 2 min testing session, the mouse was removed and placed back in its home cage and the arena was cleaned with 70% ethanol solution.

mice = assay: Behavioral itching test (scratching induced by intradermal compound 48/80); assay type: in vivo
From the text: Data are presented as mean±SEM.
Mutant KO mice and littermate wild-type mice were used in the behaviour experiments. Mice were shaved at the back of the neck where intradermal injections of compound 48/80, which releases histamine from the mast cells, were then given.

inhibition at 100 µM [2] [%] | Structure (SMILES) | Percent Inhibition AC8 [1] | inhibition of AC8 activity [1] | ambulatory counts in open field (wild-type mice; 5 mg/kg, i.p., placed in open field immediately after injection, vs saline, n=6, P<0.05) | distance traveled in open field (wild-type mice; 5 mg/kg, i.p., vs saline, P<0.05) | anti-anxiety effects in the open field test (wild-type mice; systemic injection, n=7 mice) | total scratching responses induced by intradermal compound 48/80 (100 μg/50 μl) (mice; 5 mg/kg i.p., n=6 mice vs wild-type mice n=7, P<0.05) | anti-itching effects in the itching test (mice; systemic injection 5 mg/kg)
– | c1nc(N2CCOCC2)c2nc[nH]c2n1 [Compound B, 4-(9H-purin-6-yl)morpholine] | 86 ± 2% | significant inhibition | – | – | – | – | –
25 ± 4 | Cc1ccc(OCCn2c(S)nc3c(N)ncnc32)cc1 [Compound A, 6-amino-9-(2-p-tolyloxy-ethyl)-9H-purine-8-thiol] | 88 ± 2% inhibition | significant inhibition | significantly more ambulatory counts | traveled more | significant anti-anxiety effects | significantly reduced | significant anti-itching effects
